# Tested on: HLA-A*24
# Experiment: MHC binding assay: UV-ligand exchange with beta2m ELISA (peptide exchange yield)
# Design: species or system human
# Conditions: Table 11, binding to HLA-A*24, UV-ligand exchange
# Outline: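 Peptide-MHC complexes generated by UV-induced exchange of a photocleavable ligand with the test peptide; exchange yield quantified by streptavidin-capture ELISA detecting β2m (HRP anti-β2m, TMB, A450). Samples diluted 100-fold, with refolded HLA-A*02:01/MLA-001 monomers (15-500 ng/ml) as standards.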
row,Substance,"Peptide exchange (MHC class I binding score, peptide exchange yield)"
1,212 (VYFVQYKIM; listed as Homo sapiens) [compound 212],+ (>10% = +)
2,213 (FYNRLTKLF; listed as Homo sapiens) [compound 213],++++ (>75% = ++++)
3,214 (YIPMSVMLF; listed as Homo sapiens) [compound 214],+++ (>50 = +++)
4,215 (KASKITFHW; listed as Homo sapiens) [compound 215],++ (>20% = ++)
5,216 (RHYHSIEVF; listed as Homo sapiens) [compound 216],++ (>20% = ++)
6,217 (QRYGFSSVGF; listed as Homo sapiens) [compound 217],++++ (>75% = ++++)
7,218 (FYFYNCSSL; listed as Homo sapiens) [compound 218],++++ (>75% = ++++)
8,219 (KVVSGFYYI; listed as Homo sapiens) [compound 219],+ (>10% = +)
9,220 (TYATHVTEI; listed as Homo sapiens) [compound 220],++++ (>75% = ++++)
10,222 (HYHAESFLF; listed as Homo sapiens) [compound 222],++++ (>75% = ++++)
11,223 (KLRALSILF; listed as Homo sapiens) [compound 223],+ (>10% = +)
12,224 (AYLQFLSVL; listed as Homo sapiens) [compound 224],++++ (>75% = ++++)
13,225 (ISMSATEFLL; listed as Homo sapiens) [compound 225],+++ (>50 = +++)
14,226 (TYSTNRTMI; listed as Homo sapiens) [compound 226],++++ (>75% = ++++)
15,227 (YLPNPSLNAF; listed as Homo sapiens) [compound 227],++ (>20% = ++)
16,228 (VYLRIGGF; listed as Homo sapiens) [compound 228],++ (>20% = ++)
17,229 (CAMPVAMEF; listed as Homo sapiens) [compound 229],++ (>20% = ++)
18,230 (RWLSKPSLL; listed as Homo sapiens) [compound 230],++++ (>75% = ++++)
19,231 (KYSVAFYSLD; listed as Homo sapiens) [compound 231],++ (>20% = ++)

row,Substance,"Peptide exchange (MHC class I binding score, peptide exchange yield)"
1,232 (IWPGFTTSI; listed as Homo sapiens) [compound 232],++++ (>75% = ++++)
2,234 (RYKMLIPF; listed as Homo sapiens) [compound 234],+++ (>50 = +++)
3,235 (VYISDVSVY; listed as Homo sapiens) [compound 235],++++ (>75% = ++++)
4,236 (LHLYCLNTF; listed as Homo sapiens) [compound 236],+++ (>50 = +++)
5,238 (YTCSRAVSLF; listed as Homo sapiens) [compound 238],++ (>20% = ++)
6,239 (IYTFSNVTF; listed as Homo sapiens) [compound 239],++++ (>75% = ++++)
7,240 (RVHANPLLI; listed as Homo sapiens) [compound 240],+ (>10% = +)
8,241 (QKYYITGEAEGF; listed as Homo sapiens) [compound 241],++++ (>75% = ++++)
9,242 (SYTPLLSYI; listed as Homo sapiens) [compound 242],++++ (>75% = ++++)
10,243 (ALFPMGPLTF; listed as Homo sapiens) [compound 243],++ (>20% = ++)
11,244 (TYIDTRTVFL; listed as Homo sapiens) [compound 244],++++ (>75% = ++++)
12,245 (VLPLHFLPF; listed as Homo sapiens) [compound 245],++++ (>75% = ++++)
13,246 (KIYTTVLFANI; listed as Homo sapiens) [compound 246],++++ (>75% = ++++)
14,247 (VHSYLGSPF; listed as Homo sapiens) [compound 247],++ (>20% = ++)
15,249 (HQYGGAYNRV; listed as Homo sapiens) [compound 249],++ (>20% = ++)
16,250 (VYSDRQIYLL; listed as Homo sapiens) [compound 250],++++ (>75% = ++++)
17,251 (DYLLSWLLF; listed as Homo sapiens) [compound 251],++++ (>75% = ++++)
18,252 (RYLIIKYPF; listed as Homo sapiens) [compound 252],+++ (>50 = +++)

# Results, then the substance that gave them:
row,"Peptide exchange (MHC class I binding score, peptide exchange yield)",Substance
1,+ (>10% = +),254 (KQHAWLPLTI; listed as Homo sapiens) [compound 254]
2,++++ (>75% = ++++),255 (VYLDEKQHAW; listed as Homo sapiens) [compound 255]
3,+ (>10% = +),256 (QHAWLPLTI; listed as Homo sapiens) [compound 256]
4,+++ (>50 = +++),258 (VCWNPFNNTF; listed as Homo sapiens) [compound 258]
5,++ (>20% = ++),259 (FFLFIPFF; listed as Homo sapiens) [compound 259]
6,++++ (>75% = ++++),263 (AYVTEFVSL; listed as Homo sapiens) [compound 263]
7,++ (>20% = ++),264 (AYAIPSASLSW; listed as Homo sapiens) [compound 264]
8,++ (>20% = ++),265 (LYQQSDTWSL; listed as Homo sapiens) [compound 265]
9,++ (>20% = ++),266 (TQIITFESF; listed as Homo sapiens) [compound 266]
10,+++ (>50 = +++),267 (QHMLPFWTDL; listed as Homo sapiens) [compound 267]
11,++ (>20% = ++),269 (FSFSTSMNEF; listed as Homo sapiens) [compound 269]
12,+ (>10% = +),270 (GTGKLFWVF; listed as Homo sapiens) [compound 270]
13,++ (>20% = ++),271 (INGDLVFSF; listed as Homo sapiens) [compound 271]
14,+++ (>50 = +++),272 (IYFNHRCF; listed as Homo sapiens) [compound 272]
15,++ (>20% = ++),273 (VTMYLPLLL; listed as Homo sapiens) [compound 273]
16,+++ (>50 = +++),274 (EYSLPVLTF; listed as Homo sapiens) [compound 274]
17,++++ (>75% = ++++),275 (PEYSLPVLTF; listed as Homo sapiens) [compound 275]
18,++++ (>75% = ++++),276 (KFLGSKCSF; listed as Homo sapiens) [compound 276]
19,++ (>20% = ++),278 (TYESVVTGFF; listed as Homo sapiens) [compound 278]
20,+ (>10% = +),279 (KYKNPYGF; listed as Homo sapiens) [compound 279]
21,++ (>20% = ++),280 (TIYSLEMKMSF; listed as Homo sapiens) [compound 280]
22,+++ (>50 = +++),281 (MDQNQVVWTF; listed as Homo sapiens) [compound 281]
23,++ (>20% = ++),282 (ASYQQSTSSFF; listed as Homo sapiens) [compound 282]
24,+ (>10% = +),283 (SYIVDGKII; listed as Homo sapiens) [compound 283]
25,+ (>10% = +),284 (QFYSTLPNTI; listed as Homo sapiens) [compound 284]
26,++++ (>75% = ++++),285 (YFLPGPHYF; listed as Homo sapiens) [compound 285]
